Calls of active or inactive are those of the source.
Key:
[1] = AUC (0 to infinity) in Sprague-Dawley rat at 5 mg/kg, iv; type: ADME, organism-based; design: time infinity, dose 5 mg/kg, route iv; conditions: Sprague-Dawley, in vivo
[2] = AUC (0 to t) in Sprague-Dawley rat at 5 mg/kg, iv; type: ADME, organism-based; design: dose 5 mg/kg, route iv; conditions: in vivo
[3] = target: Indoleamine 2,3-dioxygenase 1 (Homo sapiens, UniProt P14902); assay: Inhibition of IDO1 (unknown origin) assessed as reduction in kynurenine formation using L-tryptophan as substrate by methylene blue reagent based assay
HeLa = assay: Cytotoxicity against human HeLa cells assessed as reduction in cell viability at 1 to 10 uM by CCK8 assay; type: functional, cell-based; conditions: dose 1-10 µM
[4] = Volume of distribution at steady state in Sprague-Dawley rat at 5 mg/kg, iv; type: ADME, organism-based; conditions: in vivo, read-out: Vdss
[5] = Oral bioavailability in Sprague-Dawley rat at 50 mg/kg; type: ADME, organism-based; conditions: in vivo
[6] = Half life in rat liver microsomes; type: ADME, Microsome
[7] = Efflux ratio of apparent permeability across basolateral to apical over apical to basolateral side in human Caco-2 cells; type: ADME, cell-based
CT26 = assay: Antitumor activity against mouse CT26 cells implanted in BALB/c mouse assessed as tumor growth inhibition at 50 mg/kg, ip bid for 28 days by vernier caliper method relative to control; type: functional; conditions: CT26, 672 h, time 28 day, read-out: TGI
HCT-116 [8] = assay: Antitumor immunity in BALB/c mouse xenografted with human HCT-116 cells assessed as increase in IFNgamma in serum by […]; type: functional, cell-based
HCT-116 [9] = assay: Antitumor immunity in BALB/c mouse xenografted with human HCT-116 cells assessed as increase in IL-2 in serum by […]; type: functional, cell-based
HCT-116 [10] = assay: Antitumor immunity in BALB/c mouse xenografted with human HCT-116 cells assessed as early Treg cells in spleen by propidium iodide staining based flow cytometry analysis (reference value: 9.33 %); type: functional
[11] = target: Indoleamine 2,3-dioxygenase 1 (Mus musculus) (UniProt P28776); assay: In vivo inhibition of IDO1 in BALB/c mouse xenografted with human HCT-116 cells assessed as suppression of IDO1 mRNA expression in tumor by quantitative RT-PCR analysis; type: functional, organism-based
[12] = target: RAC-alpha serine/threonine-protein kinase (Homo sapiens) (UniProt P31749); assay: Inhibition of AKT1 (unknown origin) at 1 uM
[13] = target: Activin receptor type-1 (Homo sapiens) (UniProt Q04771); assay: Inhibition of ALK2 (unknown origin) at 1 uM
[14] = target: Bone morphogenetic protein receptor type-1A (Homo sapiens) (UniProt P36894); assay: Inhibition of ALK3 (unknown origin) at 1 uM
[15] = target: Serine/threonine-protein kinase BRSK2 (Homo sapiens) (UniProt Q8IWQ3); assay: Inhibition of BRSK2 (unknown origin) at 1 uM
[16] = target: CDK3/Cyclin E (Homo sapiens) (UniProt P24864+Q00526); assay: Inhibition of CDK3/cyclin-E (unknown origin) at 1 uM; type: protein-complex assay
[17] = target: Cyclin-dependent kinase 5/CDK5 activator 1 (Homo sapiens) (UniProt Q00535+Q15078); assay: Inhibition of CDK5/p25 (unknown origin) at 1 uM; type: protein-complex assay
[18] = target: CDK7/Cyclin H/MNAT1 (Homo sapiens) (UniProt P51946+P50613+P51948); assay: Inhibition of CDK7/cyclin-H/MNAT1 (unknown origin) at 1 uM; type: protein-complex assay
[19] = target: Serine/threonine-protein kinase DCLK2 (Homo sapiens) (UniProt Q8N568); assay: Inhibition of DCAMKL2 (unknown origin) at 1 uM
[20] = target: Dual specificity tyrosine-phosphorylation-regulated kinase 2 (Homo sapiens) (UniProt Q92630); assay: Inhibition of DYRK2 (unknown origin) at 1 uM
[21] = target: Ephrin type-A receptor 1 (Homo sapiens) (UniProt P21709); assay: Inhibition of EPHA1 (unknown origin) at 1 uM
[22] = target: Fibroblast growth factor receptor 1 (Homo sapiens) (UniProt P11362); assay: Inhibition of FGFR1 (unknown origin) at 1 uM
[23] = target: Tyrosine-protein kinase Fgr (Homo sapiens) (UniProt P09769); assay: Inhibition of FGR (unknown origin) at 1 uM
[24] = target: Rhodopsin kinase GRK1 (Homo sapiens) (UniProt Q15835); assay: Inhibition of GRK1 (unknown origin) at 1 uM
[25] = target: Homeodomain-interacting protein kinase 1 (Homo sapiens) (UniProt Q86Z02); assay: Inhibition of HIPK1 (unknown origin) at 1 uM
[26] = target: Inhibitor of nuclear factor kappa-B kinase subunit alpha (Homo sapiens) (UniProt O15111); assay: Inhibition of IKKalpha (unknown origin) at 1 uM
[27] = target: Serine/threonine-protein kinase MAK (Homo sapiens) (UniProt P20794); assay: Inhibition of MAK (unknown origin) at 1 uM
[28] = target: Mitogen-activated protein kinase kinase kinase 3 (Homo sapiens) (UniProt Q99759); assay: Inhibition of MEKK3 (unknown origin) at 1 uM
[29] = target: Dual specificity mitogen-activated protein kinase kinase 6 (Homo sapiens) (UniProt P52564); assay: Inhibition of MKK6 (unknown origin) at 1 uM
[30] = target: Ribosomal protein S6 kinase alpha-4 (Homo sapiens) (UniProt O75676); assay: Inhibition of MSK2 (unknown origin) at 1 uM
[31] = target: Myosin-IIIb (Homo sapiens) (UniProt Q8WXR4); assay: Inhibition of MYO3B (unknown origin) at 1 uM
[32] = target: Serine/threonine-protein kinase Nek7 (Homo sapiens) (UniProt Q8TDX7); assay: Inhibition of NEK7 (unknown origin) at 1 uM
[33] = target: Serine/threonine-protein kinase PAK 3 (Homo sapiens) (UniProt O75914); assay: Inhibition of PAK3 (unknown origin) at 1 uM
[34] = target: cAMP-dependent protein kinase catalytic subunit beta (Homo sapiens) (UniProt P22694); assay: Inhibition of PKAcb (unknown origin) at 1 uM
[35] = target: Serine/threonine-protein kinase D2 (Homo sapiens) (UniProt Q9BZL6); assay: Inhibition of PKD2 (unknown origin) at 1 uM
[36] = target: Serine/threonine-protein kinase N3 (Homo sapiens) (UniProt Q6P5Z2); assay: Inhibition of PKN3 (unknown origin) at 1 uM
[37] = target: Protein-tyrosine kinase 2-beta (Homo sapiens) (UniProt Q14289); assay: Inhibition of PYK2 (unknown origin) at 1 uM
[38] = target: NUAK family SNF1-like kinase 2 (Homo sapiens) (UniProt Q9H093); assay: Inhibition of SNARK (unknown origin) at 1 uM
[39] = target: Serine/threonine-protein kinase 25 (Homo sapiens) (UniProt O00506); assay: Inhibition of STK25 (unknown origin) at 1 uM
[40] = target: Dual specificity testis-specific protein kinase 1 (Homo sapiens) (UniProt Q15569); assay: Inhibition of TESK1 (unknown origin) at 1 uM
[41] = target: BDNF/NT-3 growth factors receptor (Homo sapiens) (UniProt Q16620); assay: Inhibition of TRKB (unknown origin) at 1 uM

Sequence of Inhibitor of nuclear factor kappa-B kinase subunit alpha (Homo sapiens) (O15111 whole entry): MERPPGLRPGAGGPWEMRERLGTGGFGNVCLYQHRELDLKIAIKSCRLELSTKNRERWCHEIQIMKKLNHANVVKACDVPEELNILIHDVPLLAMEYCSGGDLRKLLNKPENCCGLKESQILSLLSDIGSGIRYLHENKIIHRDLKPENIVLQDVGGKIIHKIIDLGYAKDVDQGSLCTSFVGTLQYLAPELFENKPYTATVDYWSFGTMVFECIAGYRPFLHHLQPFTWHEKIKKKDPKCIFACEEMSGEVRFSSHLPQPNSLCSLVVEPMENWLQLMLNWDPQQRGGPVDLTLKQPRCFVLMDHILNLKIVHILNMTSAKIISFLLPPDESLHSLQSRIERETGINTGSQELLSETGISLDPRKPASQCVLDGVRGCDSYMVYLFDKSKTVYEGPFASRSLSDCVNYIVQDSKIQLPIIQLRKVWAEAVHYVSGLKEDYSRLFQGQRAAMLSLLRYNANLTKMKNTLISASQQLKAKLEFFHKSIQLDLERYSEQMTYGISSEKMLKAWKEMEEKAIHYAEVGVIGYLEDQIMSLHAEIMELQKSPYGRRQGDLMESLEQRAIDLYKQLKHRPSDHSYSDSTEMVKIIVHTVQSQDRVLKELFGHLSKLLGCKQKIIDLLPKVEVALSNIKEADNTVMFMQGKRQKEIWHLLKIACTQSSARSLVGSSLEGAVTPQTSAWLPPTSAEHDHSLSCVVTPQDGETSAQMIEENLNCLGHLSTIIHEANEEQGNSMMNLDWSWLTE
Sequence of Myosin-IIIb (Homo sapiens) (Q8WXR4 whole entry): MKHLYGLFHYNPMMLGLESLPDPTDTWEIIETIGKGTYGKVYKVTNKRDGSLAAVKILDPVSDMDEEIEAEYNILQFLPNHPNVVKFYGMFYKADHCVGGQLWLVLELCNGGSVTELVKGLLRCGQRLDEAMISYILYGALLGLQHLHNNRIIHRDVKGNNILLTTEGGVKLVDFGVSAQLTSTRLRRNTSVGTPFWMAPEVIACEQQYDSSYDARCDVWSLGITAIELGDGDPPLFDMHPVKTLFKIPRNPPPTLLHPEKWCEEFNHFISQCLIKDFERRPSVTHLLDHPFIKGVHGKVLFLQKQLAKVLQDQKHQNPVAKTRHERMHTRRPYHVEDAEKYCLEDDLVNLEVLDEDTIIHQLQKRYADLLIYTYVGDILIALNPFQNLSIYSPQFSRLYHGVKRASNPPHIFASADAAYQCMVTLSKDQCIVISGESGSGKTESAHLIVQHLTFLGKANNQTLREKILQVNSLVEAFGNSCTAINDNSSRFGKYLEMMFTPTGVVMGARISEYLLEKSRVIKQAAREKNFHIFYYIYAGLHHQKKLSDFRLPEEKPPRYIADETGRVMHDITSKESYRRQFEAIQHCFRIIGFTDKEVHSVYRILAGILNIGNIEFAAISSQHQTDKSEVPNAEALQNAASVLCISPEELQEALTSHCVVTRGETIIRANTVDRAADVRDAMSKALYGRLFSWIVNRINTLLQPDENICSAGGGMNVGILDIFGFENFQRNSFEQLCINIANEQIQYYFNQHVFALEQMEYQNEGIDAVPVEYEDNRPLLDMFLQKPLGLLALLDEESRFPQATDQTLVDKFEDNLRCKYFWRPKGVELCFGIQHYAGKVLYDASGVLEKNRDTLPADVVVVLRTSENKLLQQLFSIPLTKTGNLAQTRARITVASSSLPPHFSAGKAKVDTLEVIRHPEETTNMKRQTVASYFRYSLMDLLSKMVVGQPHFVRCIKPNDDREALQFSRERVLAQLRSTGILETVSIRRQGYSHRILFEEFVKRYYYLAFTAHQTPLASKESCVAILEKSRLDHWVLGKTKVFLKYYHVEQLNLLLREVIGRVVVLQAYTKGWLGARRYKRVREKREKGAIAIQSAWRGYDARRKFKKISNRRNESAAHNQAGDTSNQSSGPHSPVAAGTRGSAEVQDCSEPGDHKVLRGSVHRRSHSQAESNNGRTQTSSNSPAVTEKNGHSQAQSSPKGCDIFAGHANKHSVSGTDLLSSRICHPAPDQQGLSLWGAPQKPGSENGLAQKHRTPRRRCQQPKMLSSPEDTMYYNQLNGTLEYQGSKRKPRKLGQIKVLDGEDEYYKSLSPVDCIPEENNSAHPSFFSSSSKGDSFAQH
Sequence of Indoleamine 2,3-dioxygenase 1 (P14902 whole entry): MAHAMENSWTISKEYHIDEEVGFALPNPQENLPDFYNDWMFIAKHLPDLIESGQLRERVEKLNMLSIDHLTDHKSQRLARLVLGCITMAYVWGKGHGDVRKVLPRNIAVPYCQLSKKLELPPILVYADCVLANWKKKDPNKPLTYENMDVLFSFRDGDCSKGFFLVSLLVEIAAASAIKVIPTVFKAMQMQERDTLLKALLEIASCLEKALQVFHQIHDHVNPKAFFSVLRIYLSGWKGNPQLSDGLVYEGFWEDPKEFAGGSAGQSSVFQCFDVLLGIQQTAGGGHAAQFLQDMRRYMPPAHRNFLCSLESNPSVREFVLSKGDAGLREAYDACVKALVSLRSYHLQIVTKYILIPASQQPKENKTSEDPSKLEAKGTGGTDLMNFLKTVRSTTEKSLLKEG
Sequence of Serine/threonine-protein kinase D2 (Homo sapiens) (Q9BZL6 whole entry): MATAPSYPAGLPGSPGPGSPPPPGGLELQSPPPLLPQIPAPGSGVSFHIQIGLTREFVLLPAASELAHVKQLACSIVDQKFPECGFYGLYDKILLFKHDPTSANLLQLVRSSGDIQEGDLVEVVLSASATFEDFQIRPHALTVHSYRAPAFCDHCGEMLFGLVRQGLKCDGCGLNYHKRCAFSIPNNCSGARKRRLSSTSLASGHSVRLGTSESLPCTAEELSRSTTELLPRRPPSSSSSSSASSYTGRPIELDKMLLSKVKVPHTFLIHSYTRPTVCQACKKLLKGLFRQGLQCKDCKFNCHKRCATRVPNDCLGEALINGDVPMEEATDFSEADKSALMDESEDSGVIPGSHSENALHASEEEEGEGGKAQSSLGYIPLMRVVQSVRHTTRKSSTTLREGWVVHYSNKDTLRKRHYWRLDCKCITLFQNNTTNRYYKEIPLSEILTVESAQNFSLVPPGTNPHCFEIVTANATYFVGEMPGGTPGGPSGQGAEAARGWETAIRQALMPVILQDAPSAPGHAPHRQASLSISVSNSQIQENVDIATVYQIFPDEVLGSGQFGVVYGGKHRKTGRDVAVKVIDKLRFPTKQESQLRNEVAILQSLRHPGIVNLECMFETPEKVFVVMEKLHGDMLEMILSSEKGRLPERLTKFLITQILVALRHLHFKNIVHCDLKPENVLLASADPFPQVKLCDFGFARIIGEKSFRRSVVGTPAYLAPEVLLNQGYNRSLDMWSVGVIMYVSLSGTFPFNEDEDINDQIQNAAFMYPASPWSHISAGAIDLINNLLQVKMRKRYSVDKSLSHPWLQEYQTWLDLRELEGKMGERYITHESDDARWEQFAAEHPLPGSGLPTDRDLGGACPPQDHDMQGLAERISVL
Sequence of Homeodomain-interacting protein kinase 1 (Homo sapiens) (Q86Z02 whole entry, looked up): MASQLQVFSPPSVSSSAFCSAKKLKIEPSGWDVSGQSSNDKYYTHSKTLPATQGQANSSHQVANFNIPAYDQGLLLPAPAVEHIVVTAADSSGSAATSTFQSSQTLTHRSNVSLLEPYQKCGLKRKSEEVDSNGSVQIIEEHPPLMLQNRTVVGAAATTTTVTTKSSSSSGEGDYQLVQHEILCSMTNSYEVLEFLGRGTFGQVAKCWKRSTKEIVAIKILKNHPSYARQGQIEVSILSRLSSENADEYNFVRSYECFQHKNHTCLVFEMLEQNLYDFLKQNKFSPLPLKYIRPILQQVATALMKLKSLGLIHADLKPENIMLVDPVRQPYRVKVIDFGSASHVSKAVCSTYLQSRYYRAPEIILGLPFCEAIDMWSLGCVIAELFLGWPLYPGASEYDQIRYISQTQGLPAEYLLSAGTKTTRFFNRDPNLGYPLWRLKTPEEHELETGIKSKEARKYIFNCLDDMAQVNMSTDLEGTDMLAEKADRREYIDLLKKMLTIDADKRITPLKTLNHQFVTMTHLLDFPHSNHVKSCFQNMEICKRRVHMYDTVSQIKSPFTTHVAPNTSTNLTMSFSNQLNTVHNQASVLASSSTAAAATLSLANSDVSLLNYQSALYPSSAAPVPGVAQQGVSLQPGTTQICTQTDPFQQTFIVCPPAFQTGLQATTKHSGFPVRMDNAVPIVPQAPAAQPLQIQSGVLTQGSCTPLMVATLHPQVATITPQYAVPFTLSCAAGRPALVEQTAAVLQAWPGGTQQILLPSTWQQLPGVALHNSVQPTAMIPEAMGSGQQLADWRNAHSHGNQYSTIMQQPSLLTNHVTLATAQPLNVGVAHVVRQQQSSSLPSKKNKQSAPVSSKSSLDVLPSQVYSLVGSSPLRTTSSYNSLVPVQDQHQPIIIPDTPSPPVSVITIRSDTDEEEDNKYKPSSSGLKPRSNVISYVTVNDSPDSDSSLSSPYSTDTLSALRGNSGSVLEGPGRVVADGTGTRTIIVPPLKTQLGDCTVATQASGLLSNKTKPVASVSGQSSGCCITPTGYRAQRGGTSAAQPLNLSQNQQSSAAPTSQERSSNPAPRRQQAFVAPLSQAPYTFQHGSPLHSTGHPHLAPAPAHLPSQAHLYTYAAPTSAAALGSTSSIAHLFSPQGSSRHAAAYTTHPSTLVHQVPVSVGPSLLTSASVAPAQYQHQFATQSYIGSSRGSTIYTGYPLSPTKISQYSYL
Sequence of Dual specificity mitogen-activated protein kinase kinase 6 (Homo sapiens) (P52564 whole entry): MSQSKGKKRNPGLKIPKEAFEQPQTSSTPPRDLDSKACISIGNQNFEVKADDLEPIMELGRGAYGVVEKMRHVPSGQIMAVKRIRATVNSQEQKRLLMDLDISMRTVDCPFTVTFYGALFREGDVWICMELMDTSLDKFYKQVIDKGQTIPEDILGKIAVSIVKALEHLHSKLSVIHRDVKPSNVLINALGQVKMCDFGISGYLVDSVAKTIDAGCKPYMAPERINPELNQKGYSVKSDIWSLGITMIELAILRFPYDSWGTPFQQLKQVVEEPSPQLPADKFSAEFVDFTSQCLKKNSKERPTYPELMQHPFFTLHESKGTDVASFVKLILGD

OCCOCc1cn(CCNc2nonc2/C(=N/O)Nc2ccc(F)c(Br)c2)nn1
0.88 L/kg: Vd [4]
3050 ng·h/mL: AUC(0-inf) [1]
6.4: efflux ratio [7]
12%: bioavailability [5]
3040 ng·h/mL: AUC(0-t) [2]
28 nM: IC50 [3]
active: Activity (HeLa) | Activity (HCT-116 [8]) | Activity (HCT-116 [9]) | inhibition [11]
69.7%: inhibition in vivo at 50 mg/kg (CT26)
inactive: inhibition [12] | inhibition [13] | inhibition [14] | inhibition [15] | inhibition [16] | inhibition [17] | inhibition [18] | inhibition [19] | inhibition [20] | inhibition [21] | inhibition [22] | inhibition [23] | inhibition [24] | inhibition [25] | inhibition [26] | inhibition [27] | inhibition [28] | inhibition [29] | inhibition [30] | inhibition [31] | inhibition [32] | inhibition [33] | inhibition [34] | inhibition [35] | inhibition [36] | inhibition [37] | inhibition [38] | inhibition [39] | inhibition [40] | inhibition [41]
21.2 min: half-life [6]
4.54%: Activity (HCT-116 [10])

From ChEMBL document CHEMBL5055685, “Discovery of the First Potent IDO1/IDO2 Dual Inhibitors: A Promising Strategy for Cancer Immunotherapy” (J Med Chem, 2021)
